What all share (format): functional
Assay [1] deals with Neuron. The assay can be described thus: Neuroprotective effect against H202-induced Sprague-Dawley rat neuron injury assessed as early apoptic cells by annexin V-propidium iodide staining by flow cytometry (reference value: 3.09% +/- 1.40%). (A flow cytometer gives signals particle by particle.)
Assay [2] deals with Neuron. As to the kind of experiment: Neuroprotective effect against H202-induced Sprague-Dawley rat neuron injury assessed as viable cells by annexin V-propidium iodide staining by flow cytometry (reference value: 93.66%+/-2.19%).
The test system of assay [3] is Neuron. The assay can be described thus: Neuroprotective effect against H202-induced Sprague-Dawley rat neuron injury assessed as late apoptic cells by annexin V-propidium iodide staining by flow cytometry (Rvb= 2.22%+/-0.70%).
Assay [4] deals with Neuron. The assay can be described thus: Neuroprotective effect against H202-induced Sprague-Dawley rat neuron injury assessed as necrotic cells by annexin V-propidium iodide staining by flow cytometry (reference value: 1.02% +/-0.4%).
The test system of assay [5] is Neuron. As to the kind of experiment: Neuroprotective effect against H202-induced Sprague-Dawley rat neuron injury assessed as apoptic cells by annexin V-propidium iodide staining by flow cytometry. The arrangement: concentration or dose not given beside the values.
Assay [6] concerns Neuron. As to the kind of experiment: Neuroprotective effect against H202-induced Sprague-Dawley rat neuron injury assessed as cell viability by annexin V-propidium iodide staining by flow cytometry.

For the compound `CCCCCOc1ccc(C(C)(O)/C=C/C2C(C)=CCCC2(C)C)cc1` (stereo unspecified), the Activity came to 25.77% in the assay on Neuron [1], 60.91% in the assay with Neuron [2], 12.7% with Neuron [3] and 0.61% with Neuron [4].

Consider `COc1cccc(C(C)(O)/C=C/C2=C(C)CCCC2(C)C)c1` (stereo unspecified), for which the Activity in the assay with Neuron [1] is 4.95%; in the assay on Neuron [2], 82.3%; with Neuron [3], 5.35%; in the assay with Neuron [4], 7.39%.

Turning to `CCCOc1ccc(C(C)(O)/C=C/C2C(C)=CCCC2(C)C)cc1` (stereo unspecified), the Activity came to 4.31% with Neuron [1], 91.9% with Neuron [2], 0.7% in the assay with Neuron [3] and 3% in the assay with Neuron [4].

On to `CCOc1ccc(C(C)(O)/C=C/C2=C(C)CCCC2(C)C)cc1` (stereo unspecified), for which the Activity with Neuron [1] was found to be 50.34%; with Neuron [2], 33.1%; in the assay on Neuron [3] it was 15.62%; with Neuron [4] it was 0.93%.

With `CSc1ccc(C(C)(O)/C=C/C2=C(C)CCCC2(C)C)cc1` (stereo unspecified), the Activity with Neuron [1] worked out at 30.89%; in the assay with Neuron [2] it was 66.4%; in the assay on Neuron [3], 2.5%; in the assay on Neuron [4] it was 0.21%.

Take `CC1=CCCC(C)(C)C1/C=C/C(C)(O)c1ccc(C(F)(F)F)cc1` (stereo unspecified): the Activity in the assay with Neuron [1] is recorded as 72.6%; with Neuron [2], 5.09%; in the assay with Neuron [5], 72.6%; in the assay on Neuron [3] it was 22.23%; with Neuron [4], 0.057%.

`COc1ccc(C(C)(O)/C=C/C2C(C)=CCCC2(C)C)cc1OC` (stereo unspecified): the Activity was determined as 57.36% in the assay on Neuron [1]; 3.9% in the assay on Neuron [2]; 57.36% in the assay with Neuron [5]; 38.5% in the assay on Neuron [3]; 0.065% in the assay with Neuron [4].

For the compound `CCOc1ccc(C(C)(O)/C=C/C2C(C)=CCCC2(C)C)cc1` (stereo unspecified), the Activity in the assay with Neuron [1] is listed as 31.4%; in the assay on Neuron [2] it was 50.8%; with Neuron [3] it was 16.3%; in the assay on Neuron [4], 1.32%.

With `CC1=CCCC(C)(C)C1/C=C/C(C)(O)c1ccc(C(C)(C)C)cc1` (stereo unspecified), the Activity in the assay with Neuron [1] is 62.1%; in the assay on Neuron [2], 7.36%; with Neuron [5] it was 62.1%; with Neuron [3], 30.4%; in the assay with Neuron [4], 0.05%.

With `COc1ccc(C(C)(O)/C=C/C2=C(C)CCCC2(C)C)cc1` (stereo unspecified), the Activity with Neuron [1] was determined as 12.2%; in the assay on Neuron [2], 75.25%; in the assay with Neuron [3] it was 9.06%; in the assay on Neuron [4] it was 3.42%; in the assay on Neuron [6], 75.25%.

As for `COc1cc(/C=C/C(=O)CC(=O)/C=C/c2ccc(O)c(OC)c2)ccc1O` [CURCUMIN], the Activity with Neuron [1] is 24.15%; in the assay on Neuron [2] it was 79.9%; with Neuron [3], 7.3%; in the assay with Neuron [4], 1.89%.

For the compound `CCCCCOc1ccc(C(C)(O)/C=C/C2=C(C)CCCC2(C)C)cc1` (stereo unspecified), the Activity came to 26.48% with Neuron [1], 69.25% in the assay with Neuron [2], 4.02% in the assay with Neuron [3] and 0.26% in the assay on Neuron [4].

Consider `CC1=CCCC(C)(C)C1/C=C/C(C)(O)c1ccsc1` (stereo unspecified), for which the Activity with Neuron [1] is reported as 50.9%; in the assay with Neuron [2] it was 6.8%; with Neuron [5] it was 50.9%; in the assay on Neuron [3] it was 42.09%; in the assay with Neuron [4], 0.025%.

Turning to `CC1=CCCC(C)(C)C1/C=C/C(C)(O)c1cc(C)ccc1C` (stereo unspecified), the Activity in the assay on Neuron [1] came to 55.1%; in the assay with Neuron [2], 6.4%; in the assay on Neuron [5] it was 55.1%; in the assay on Neuron [3], 38.3%; with Neuron [4] it was 0.045%.

As to `COc1ccccc1C(C)(O)/C=C/C1C(C)=CCCC1(C)C` (stereo unspecified), the Activity with Neuron [1] is listed as 39.8%; in the assay on Neuron [2] it was 44.4%; with Neuron [3], 15.2%; with Neuron [4] it was 0.42%.

Turning to `COc1ccc(C(C)(O)/C=C/C2C(C)=CCCC2(C)C)cc1` (stereo unspecified), the Activity with Neuron [1] is reported as 41.37%; in the assay on Neuron [2], 37.75%; in the assay on Neuron [3] it was 19.72%; in the assay with Neuron [4], 1.14%.

With `CC1=CCCC(C)(C)C1/C=C/C(C)(O)c1ccccc1` (stereo unspecified), the Activity in the assay on Neuron [1] is 62.9%; in the assay on Neuron [2], 6.5%; in the assay on Neuron [5], 62.9%; in the assay on Neuron [3], 30.47%; with Neuron [4], 0.05%.

`COc1cccc(C(C)(O)/C=C/C2C(C)=CCCC2(C)C)c1` (stereo unspecified): the Activity with Neuron [1] was determined as 25.02%; with Neuron [2], 61.7%; in the assay on Neuron [3], 9.4%; with Neuron [4] it was 3.89%; in the assay on Neuron [6] it was 61.7%.

For the compound `CCCOc1ccc(C(C)(O)/C=C/C2=C(C)CCCC2(C)C)cc1` (stereo unspecified), the Activity in the assay on Neuron [1] is 53.84%; in the assay with Neuron [2] it was 29%; with Neuron [3] it was 16.6%; in the assay with Neuron [4] it was 0.52%.

`C[C@]12N[C@H](Cc3ccccc31)c1ccccc12.O=C(O)/C=C\C(=O)O` [DIZOCILPINE MALEATE]: the Activity in the assay with Neuron [1] was 14.9%; in the assay with Neuron [2], 82.45%; in the assay with Neuron [3] it was 1.56%; in the assay on Neuron [4], 1.96%.

For `COc1ccccc1C(C)(O)/C=C/C1=C(C)CCCC1(C)C` (stereo unspecified), the Activity with Neuron [1] is on record as 66.1%; with Neuron [2] it was 19%; in the assay with Neuron [3], 14.5%; in the assay with Neuron [4], 0.32%.

Turning to `CSc1ccc(C(C)(O)/C=C/C2C(C)=CCCC2(C)C)cc1` (stereo unspecified), the Activity amounted to 50.55% with Neuron [1], 33.43% in the assay with Neuron [2], 15.43% with Neuron [3] and 0.58% with Neuron [4].
